This is an account of results in US20240150755A1, “MODULATING REGULATORY T CELL FUNCTION IN AUTOIMMUNE DISEASE AND CANCER” (Salk Institute for Biological Studies, priority 2021, published 2024).

What all share (format): cell-based, mouse
The subject of one series is Foxp3. Description: Foxp3 expression (MFI) in Treg cells by flow cytometry. From the text: (§1) For large scale Treg culture, Tregs were first expanded in Rosa-Cas9/Foxp3^Thy1.1 mice by injecting IL-2:IL-2 antibody immune complex according protocol described in Webster et. al (J Exp Med 206, 751-760, 2009). Spleen and lymph node Treg cells were labeled with PE-conjugated Thy1.1 antibody and isolated by magnetic selection using anti-PE microbeads (Mitenyl #130-048-801). All isolated Treg cells were activated by plate bound anti-CD3 and anti-CD28 antibodies and cultured with X-VIVO® 20 media (LONZA #04-448Q) supplemented by 1× Pen/Strep, 1× Sodium pyruvate, 1× HEPES, 1× GlutaMax™, 55 μM beta-mercaptoethanol in the presence of IL-2 at 500 units/mL. For experiments with Brd9 degradation, Treg cells were treated at day 0 with 2.5 μM dBRD9 (Tocris #6606) and cultured for four days for RNA- and ChIP-seq and 0.16-10 μM treated at day 0 and cultured dBRD9 for four days for Foxp3 MFI, cell viability and cell proliferation assays. Live cells were enriched by Ficoll-Paque® 1.084 (GE Health 17-5446-02) for RNA-seq and ChIP-seq.
HEK293T cells were seeded in 6-wells plate at 0.5 million cells per 2 mL DMEM media supplemented by 10% FBS, 1% Pen/Strep, 1× GlutaMax®, 1× Sodium Pyruvate, 1× HEPES, and 55 μM beta-mercaptoethanol. […] Transduced cells were analyzed for Foxp3 and cytokine expression in eBioscience® Fix/Perm buffer (eBioscience #00-5523-00) using flow cytometry. […]
(A flow cytometer gives signals particle by particle.)

Series [1] relates to Treg cells. Briefly: In vitro Treg suppression assay. From the text: Treg cells were transduced by retrovirus expressing sgRNA targeting gene of interest and cultured in X-VIVO® complete media supplemented with IL-2 (500 U/ml). Four days after transduction, transduced cells were […] a fluorescence-activated cell sorter (FACS). CD45.1+ naive CD4 T cells (CD4^+CD25^−CD44^loCD62^hi) were labeled with CellTrace™ Violet (Thermo Fisher Scientific #C34571) in different ratio in the presence of irradiated T cell depleted spleen cells as antigen-presenting cells (APC). Three days later, Treg suppression function was measured by the percentage of non-dividing cells within the CD45.1^+ effector T cell population. For dBRD9 treatment experiment, dBRD9 was first dissolved in DMSO (10 mM stock) and added into Treg:Teff:APC mixture at 2.5 μM. For Foxp3 overexpression rescue experiment, Treg cells were first transduced with sgNT or sgBrd9 at 24 hour post-activation, and then transduced with MIGR empty vector or MIGR-Foxp3 at 48 hour post-activation. Double transduced Treg cells were FACS sorted on day 4 based on NGFR+ and GFP+ markers and then mixed with CellTrace™ labeled effector T cells in the presence of APC. Treg suppression readout was measured after three days of co-culture.

In another series the test system is Foxp3-bound sites. Description: Foxp3 ChIP-seq in Treg cells.
From the text: as §1
(§2) Treg cells were collected and cross-linked first in 3 mM disuccinimidyl glutarate (DSG) in 1×PBS for thirty minutes then in 1% formaldehyde for another ten minutes, both at RT, for chromatin binding protein ChIP or in 1% formaldehyde only for histone modification ChIP. After quenching the excess cross-linker with a final concentration of 125 mM glycine, the cells were washed in 1× PBS, pelleted, flash-frozen in liquid nitrogen, and stored at −80° C. Cell pellets were thawed on ice and incubated in lysis solution (50 mM HEPES-KOH pH 8, 140 mM NaCl, 1 mM EDTA, 10% glycerol, 0.5% NP40, 0.25% Triton X-100) for ten minutes. The isolated nuclei were washed with wash solution (10 mM Tris-HCl pH 8, 1 mM EDTA, 0.5 mM EGTA, 200 mM NaCl) and shearing buffer (0.1% SDS, 1 mM EDTA, 10 mM Tris-HCl pH 8) then sheared in a Covaris® E229 sonicator for ten minutes to generate DNA fragments between ˜200-1000 base pairs (bp). After clarification of insoluble material by centrifugation, the chromatin was immunoprecipitated overnight at 4° C. with antibodies against Foxp3, Smarca4, Brd9, Phf10 or H3K27ac. The next day, the antibody bound DNA was incubated with Protein A+G Dynabeads™ (Invitrogen) in ChIP buffer (50 mM HEPES-KOH pH 7.5, 300 mM NaCl, 1 mM EDTA, 1% Triton X-100, 0.1% DOC, 0.1% SDS), washed and treated with Proteinase K and RNase A. Cross-linking was reversed by incubation at 55° C. for two and a half hours. Purified ChIP DNA was used for library generation (NuGen Ovation® Ultralow Library System V2) according to manufacturer's instructions for subsequent sequencing.
Single-end 50 bp or paired-end 42 bp reads were aligned to mouse genome mm10 using STAR alignment tool (V2.5) (Dobin et al., Bioinformatics 29:15-21, 2013). ChIP-Seq peaks were called using findPeaks within HOMER using parameters for histone (-style histone) or transcription factor (-style factor) (homer.ucsd.edu/homer/index.html). Peaks were called when enriched >two-fold over input and >four-fold over local tag counts, with FDR 0.001. For histone ChIP, peaks within a 1000 bp range were stitched together to form regions. Differential ChIP peaks were found by merging peaks from control and experiment groups and called using getDiffExpression.pl with fold change ≥1.5 or ≤−1.5, Poisson p value<0.0001.

Series [2] relates to Treg cells. Description: Cell division by CellTrace dilution in Treg cells. The settings on record: dBRD9 in increasing concentrations for 4 days.
From the text: as §1

The subject of series [3] is Treg cells. Description: Cell viability by Ghost Dye in Treg cells. To be noted: dBRD9 in increasing concentrations for 4 days.
From the text: as §1

For another series, the system named is H3K27ac. Description: H3K27ac ChIP-seq in Treg cells. The settings on record: sgRNA transduced Treg cells. The procedure: as §2, with “The next day, the antibody bound DNA was incubated with Protein A+G Dynabeads™ (Invitrogen) in ChIP buffer (50 mM HEPES-KOH pH 7.5, 300 mM NaCl, 1 mM EDTA, 1% Triton X-100, 0.1% DOC, 0.1% SDS), washed and treated with Proteinase K and RNase A. Cross-linking was reversed by incubation at 55° C. for two and a half hours. Purified ChIP DNA was used for library generation (NuGen Ovation® Ultralow Library System V2) according to manufacturer's instructions for subsequent sequencing.” left out
Single-end 50 bp or paired-end 42 bp reads were aligned to mouse genome mm10 using STAR alignment tool (V2.5) (Dobin et al., Bioinformatics 29:15-21, 2013). […]

A further series concerns Foxp3 target genes. Briefly: RNA-seq and gene set enrichment analysis in Treg cells. The settings on record: sgRNA transduced Treg cells vs sgNT.
From the text: as §1
RNA from 1-3×10^6 cells was extracted and purified with TRIzol™ reagent (Thermo Fisher) according to manufacturer's instructions. RNA-seq libraries were prepared using Illumina® TruSeq® Stranded mRNA kit following manufacturer's instructions with 5 μg of input RNA.
Single-end 50 bp reads were aligned to the mouse genome mm10 using STAR alignment tool (V2.5) (Dobin et al., Bioinformatics 29:15-21, 2013). RNA expression was quantified as raw integer counts using analyzeRepeats.pl in HOMER (Heinz et al., Mol Cell 38:576-589, 2010) using the following parameters: -strand both -count exons -condenseGenes -noadj. To identify differentially expressed genes, getDiffExpression.pl in HOMER was used, which uses the DESeq2R package to calculate the biological variation within replicates. Cut-offs were set at log 2 FC=0.585 and FDR at 0.05 (Benjamin-Hochberg). Principal Component Analysis (PCA) was performed with the mean of transcript per million (TPM) values using Cluster 3.0 with the following filter parameters: at least one observation with absolute value equal or greater than two and gene vector of four. TPM values were log transformed then centered on the mean.
GSEA software (Mootha et al., Nat Genet 34:267-273, 2003; Subramanian et al., PNAS 102:15545-15550, 2005) was used to perform the analyses with the following parameters: number of permutations=1000; enrichment statistic=weighted; and metric for ranking of genes=difference of classes (Input RNA-seq data was log-transformed). For GSEA analysis, input RNA-seq data contained the normalized log-transformed reads of the 1,325 differentially expressed genes (DEGs) in sgFoxp3/sgNT Treg cells. The compiled gene list included GSEA Gene Ontology, Immunological Signature, Curated Gene, and the up and down DEGs in sgBrd9/sgNT Treg cells.
For gene expression analysis in FIG. 42F, Foxp3 ChIP-seq tags were quantified at the union of sites bound by Foxp3 in sgNT and sgBrd9 using the annotatePeaks.pl command in HOMER with size-given and each site was annotated to a gene by mapping to the nearest TSS. Sites were ranked from least to largest Foxp3 ChIP-seq Log2FC in sgBrd9 vs sgNT and divided into quartiles. Gene expression for the genes in the top and bottom quartiles (Brd9-dependent and -independent, respectively) was then plotted using RNA-seq data from Treg cells transduced with sgBrd9, sgSmarcd1, or sgPbrm1 compared to sgNT. […]

Entries after “also recorded” stand apart in the source; their conditions may differ.

On to “sgUsp22: sgRNA targeting Usp22, GCCATCGACCTGATGTACGG (SEQ ID NO: 18) (expressed or natural sequence)”, for which the “Foxp3 expression (MFI)” value in the series with Foxp3 (sgRNA transduced Cas9 Treg cells vs sgNT) is listed as “reduces Foxp3 expression”. For the same molecule, the Treg suppressor activity result in the series on Treg cells [1] (sgRNA transduced Treg cells vs sgNT) is given as “compromised Treg suppressor activity”.
On to `COc1cc(-c2cn(C)c(=O)c3cnccc23)cc(OC)c1CN(C)CC(=O)NCCOCCOCCNc1cccc2c1C(=O)N(C1CCC(=O)NC1=O)C2=O` (stereo not shown) [dBRD9], for which, in the series on Foxp3-bound sites (Treg cells, 2.5 μM dBRD9 for 4 days vs DMSO), the “Foxp3 binding to chromatin” value is reported as “diminished Foxp3 binding to chromatin at a subset of Foxp3 target sites”. For the same molecule, the “Foxp3 expression (MFI)” value with Foxp3 (Treg cells, 0.16-10 μM dBRD9 for 4 days vs DMSO) is on record as “significantly decreased Foxp3 expression in Treg cells in a concentration-dependent manner; also recorded: reduces Foxp3 expression”. The cell proliferation result in the series with Treg cells [2] is “without affecting cell viability or proliferation; also recorded: without affecting cell viability and proliferation”. Further, the T effector responses entry in the series with Treg cells [1] (dBRD9 2.5 μM, in vitro) was “without impairing T effector responses”. The Treg suppressor function result in the series with Treg cells [1] (dBRD9 added to Treg:Teff:APC mixture at 2.5 μM) was “significantly and specifically compromised Treg suppressor function; also recorded: reduces Treg suppressor activity”. In addition, the cell viability entry in the series with Treg cells [3] is reported as “without affecting cell viability”.
For “sgPbrm1: sgRNA targeting Pbrm1, AAAACACTTGCATAACGATG (SEQ ID NO: 8) (expressed or natural sequence)”, the “Foxp3 binding at CNS2/CNS0” value in the series with Foxp3-bound sites (sgRNA transduced Treg cells) was “subtle increase in Foxp3 binding at CNS2/CNS0”. Further, the “Foxp3 binding at a subset of Foxp3 sites (Brd9-dependent sites)” value in the series with Foxp3-bound sites (sgRNA transduced Treg cells, FC1.5, Poisson p<0.0001) is “did not change”.
Turning to “sgFoxp3: sgRNA targeting Foxp3, TCTACCCACAGGGATCAATG (SEQ ID NO: 1) (expressed or natural sequence)”, in the series with Foxp3-bound sites (sgRNA transduced Treg cells), the “Foxp3 binding at CNS2/CNS0” value was “dramatic reduction in Foxp3 binding at CNS2/CNS0”. For the same molecule, in the series with Foxp3-bound sites (sgRNA transduced Treg cells, genome-wide), the “Foxp3 binding sites at which Foxp3 binding was lost” value is on record as “over 85%”. The “H3K27ac at Brd9-dependent Foxp3 sites” value in the series with H3K27ac is reported as “reduction in H3K27ac”. Also, in the series with Foxp3 target genes (RNA-seq), the “genes with increased expression” value worked out at 532 genes and the “genes with reduced expression” value is 793 genes.
On to “sgSmarcd1: sgRNA targeting Smarcd1, CAATCCGGCTAAGTCGGACG (SEQ ID NO: 15) (expressed or natural sequence)”, for which the “gene expression of Brd9-dependent vs Brd9-independent Foxp3 target genes” value with Foxp3 target genes is “significantly more affected”.
